Laboratory results taken from the NIST ThermoML archive (doi:10.1021/je100861u).
± gives the expanded uncertainty stated by the source.

Experiments:
[1] = Liquid; Distillation
[2] = refractive index (Na D-line) (dimensionless); settings: 293.15 K; 101.33 kPa; Liquid; Standard Abbe refractometry

Question: What does the source list for `CCCCOC(C)=O` [butyl ethanoate]?
Answer: Normal boiling temperature [1]: 125.96 ± 0.5 °C; refractive index [2]: 1.3941 ± 0.0007

Question: Which results are given for `CC(=O)C(C)O` (centres undefined) [2,3-butanolone]?
Answer: Normal boiling temperature [1]: 148.38 ± 0.54 °C; refractive index [2]: 1.4198 ± 0.0008
